Holding throughout (assay): NCI-60 cell line screen, 48 h
In experiment [1] the test system is HCC-2998 colon.
Experiment [2] relates to K-562 leukemia.
Experiment [3] relates to SW-620 colon.
In experiment [4] the test system is UACC-62 melanoma.
The test system of experiment [5] is OVCAR-4 ovarian.
For experiment [6], the system named is M14 melanoma.
Experiment [7] deals with MOLT-4 leukemia.
In experiment [8] the test system is IGROV1 ovarian.
Experiment [9] relates to SK-MEL-5 melanoma.
Experiment [10] relates to HCT-116 colon.
Experiment [11] relates to HL-60(TB) leukemia.
Experiment [12] relates to CCRF-CEM leukemia.
The subject of experiment [13] is SNB-75 CNS.
The subject of experiment [14] is KM12 colon.
In experiment [15] the test system is SNB-19 CNS.
The subject of experiment [16] is SF-295 CNS.
In experiment [17] the test system is EKVX NSCLC.
Experiment [18] concerns MCF7 breast.
Experiment [19] relates to A549 NSCLC.
Experiment [20] deals with OVCAR-5 ovarian.

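Method: 48-hour compound exposure of cells in 96-well plates, five concentrations, linear interpolation of endpoints. The concentration for full growth arrest is given as TGI.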

Take `Cc1cc2c3c(c1)CCCN3CCC2`: the TGI in experiment [1], in experiment [2], in [3], in experiment [4], in [5] and in [6] was more than 10 µM throughout. In addition, the TGI in experiment [7], in [8], in experiment [9], in experiment [10], in [11] and in experiment [12] was more than 10 µM in each case. For the same molecule, the TGI in [13], in experiment [14], in experiment [15], in experiment [16], in experiment [17] and in experiment [18] was more than 10 µM throughout. In addition, the TGI in experiment [19] is more than 10 µM.

Take `COC(=O)[C@]1(C)[C@H]2C[C@H]3O[C@H]4[C@H](O)[C@@H](O)OC(CC(O)C(C5=CC(=O)OC5)C(C5=CC(=O)OC5)C(O)CC56CCCCC7[C@@H](C)[C@H](C[C@H]8[C@](C)(C(=O)OC)[C@H](O)CC[C@]78C)O[C@H]([C@@H](O)[C@H](O)O5)[C@H]6O)(CCCCC([C@@H]3C)[C@]2(C)CC[C@@H]1O)[C@H]4O` (stereo partly specified): the TGI in experiment [1] was 2.94 µM; in experiment [2], 1.73 µM; in experiment [3], 1.78 µM; in [4], 0.779 µM; in experiment [5], 0.373 µM; in experiment [6], 1.16 µM. Further, the TGI amounted to 3.14 µM in [20]; 0.0883 µM in [7]; 1.2 µM in experiment [8]; 0.129 µM in experiment [9]; 0.53 µM in [10]; 0.348 µM in experiment [11]. For the same molecule, the TGI was found to be 0.333 µM in experiment [12]; 1.04 µM in [13]; 1.97 µM in experiment [14]; 1.12 µM in experiment [15]; 0.224 µM in experiment [17]; 1.58 µM in experiment [18]. In experiment [19], this molecule gave a TGI of 0.182 µM.

Regarding `O=C1c2ccccc2/C=C\C(c2ccccc2)=N/N1c1ccccc1Cl`, the TGI in experiment [1] was more than 100 µM; in [2] it was more than 100 µM; in [3], more than 100 µM; in [5] it was 97.2 µM; in [6], 51.2 µM; in [20] it was more than 100 µM. In addition, the TGI was 77.1 µM in [7]; more than 100 µM in experiment [8]; 26.3 µM in experiment [9]; more than 100 µM in experiment [10]; 54.8 µM in [11]; more than 100 µM in experiment [12]. Also, the TGI in experiment [13] was 97.8 µM; in experiment [14] it was 64.4 µM; in experiment [15], more than 100 µM; in [16], more than 100 µM; in experiment [17] it was more than 100 µM; in experiment [18], 63.9 µM. Moreover, in [19], the TGI turned out to be 60.5 µM.

For the molecule `COC1(c2ccccc2)NC(=S)NN=C1c1ccccc1` (stereo unspecified), the TGI in experiment [1] was 37.8 µM; in experiment [2] it was more than 100 µM; in experiment [3] it was more than 100 µM; in experiment [4], more than 100 µM; in experiment [6], more than 100 µM; in [20], more than 100 µM. Besides, the TGI is more than 100 µM in [7]; more than 100 µM in [8]; 80.7 µM in [9]; more than 100 µM in experiment [10]; 54.5 µM in experiment [11]; more than 100 µM in [12]. Further, the TGI is 97.5 µM in [13]; more than 100 µM in experiment [14]; more than 100 µM in [15]; 99.3 µM in experiment [16]; more than 100 µM in experiment [17]; more than 100 µM in [18]. Also, the TGI in experiment [19] was more than 100 µM.

Turning to `CC(=O)O[C@H]1C[C@H]2[C@@H]([C@H](OC(C)=O)C[C@@H]3CC4(CC[C@@]32C)OOC2(CCCCC2)OO4)[C@@H]2CC[C@H]([C@H](C)CCC(=O)O)[C@@]12C`, the TGI in experiment [1] was 25 µM; in experiment [2] it was 23.7 µM; in experiment [3], 30 µM; in experiment [5], 9.38 µM; in [6], 26.9 µM; in experiment [20], 29.8 µM. In addition, the TGI in experiment [7] was determined as 51.6 µM; in [8] it was 3.9 µM; in [9] it was 22.6 µM; in experiment [10] it was 19.2 µM; in [11] it was 15.1 µM; in experiment [12] it was 15.5 µM. The TGI amounted to 14.8 µM in experiment [13]; 17.1 µM in [14]; 25.4 µM in experiment [15]; 19.1 µM in experiment [16]; 4.76 µM in experiment [17]; 22.1 µM in [18]. The TGI in [19] was determined as 12.8 µM.

Take `CCCCC1Cc2cc(OC)ccc2-c2n1c1cc(OC)ccc1[n+]2C` (stereo unspecified) (tested in a mixture with another compound): the TGI is 8.51 µM in experiment [1]; more than 62.8 µM in experiment [2]; more than 55.5 µM in experiment [3]; 3.03 µM in [4]; 20.7 µM in experiment [5]; 25.7 µM in experiment [6]. For the same molecule, the TGI in experiment [20] is 68.2 µM; in [7], more than 51.6 µM; in [8], 6.61 µM; in [9], 3.76 µM; in experiment [10], more than 39.9 µM; in [11] it was 1.71 µM. Further, the TGI in experiment [12] is 25.3 µM; in experiment [13] it was 87.6 µM; in experiment [14], 10.7 µM; in experiment [16] it was more than 37.3 µM; in experiment [17], 20.2 µM; in experiment [18] it was 15.8 µM. In experiment [19], the TGI is more than 45.7 µM.

As for `O=C(/C=C/c1ccc(Cl)cc1)c1ccc(Cl)s1`, the TGI in experiment [1] is 47.3 µM; in [2], more than 100 µM; in [3], 55 µM; in [4], 93 µM; in experiment [5], more than 100 µM; in experiment [6], more than 100 µM. In addition, the TGI in experiment [20] was more than 100 µM; in experiment [7] it was more than 100 µM; in [8] it was more than 100 µM; in experiment [10] it was 22.4 µM; in experiment [11] it was more than 100 µM; in [12] it was 83.7 µM. Also, the TGI is more than 100 µM in experiment [13]; more than 100 µM in experiment [14]; more than 100 µM in experiment [15]; more than 100 µM in [16]; more than 100 µM in experiment [17]; 44.6 µM in [18]. The TGI in [19] was more than 100 µM.

Turning to `C=CC1(O)CCCC=C1COCc1ccccc1` (stereo unspecified), the TGI in [1], in [2], in experiment [4], in experiment [5], in [6] and in experiment [20] was more than 100 µM each time. The TGI in [7] is 66.7 µM; in experiment [8], 35.3 µM; in experiment [9], more than 100 µM; in experiment [10], more than 100 µM; in [11], 72.2 µM; in experiment [12] it was more than 100 µM. In addition, the TGI in experiment [13], in [14], in [15], in experiment [16], in [17] and in experiment [18] was more than 100 µM throughout. The same molecule returned a TGI in [19] of more than 100 µM.

For `O/N=C1\CSc2ccccc2C1`, the TGI in [1], in [2], in experiment [3], in experiment [4], in experiment [5] and in experiment [6] was more than 100 µM in each case. Further, the TGI in [20], in experiment [7], in [8], in experiment [9], in experiment [10] and in experiment [11] was more than 100 µM each time. Further, the TGI is more than 100 µM in experiment [12]; more than 100 µM in [14]; more than 100 µM in experiment [15]; more than 100 µM in [16]; 94.5 µM in experiment [17]; more than 100 µM in experiment [18]. The molecule also gave a TGI in [19] of more than 100 µM.

Consider `Cc1ccc(C=C(C(=O)O)C(=O)O)o1`, for which the TGI in experiment [1], in experiment [2], in experiment [3], in experiment [4], in [6] and in experiment [20] was more than 100 µM each time. Moreover, the TGI in [7], in experiment [8], in experiment [9], in experiment [10], in experiment [11] and in experiment [12] was more than 100 µM throughout. The TGI in experiment [13], in [14], in [15], in experiment [16], in experiment [17] and in experiment [18] was more than 100 µM throughout. In experiment [19], this molecule returned a TGI of more than 100 µM.

For the molecule `CSC1(Cc2ccccn2)C(=O)Nc2cccc([N+](=O)[O-])c21` (stereo unspecified), the TGI in [1], in experiment [3], in [4], in experiment [5], in [6] and in experiment [20] was more than 100 µM in each case. The TGI in experiment [7], in experiment [8], in [9], in experiment [10], in experiment [11] and in [12] was more than 100 µM in each case. Besides, the TGI in experiment [13], in experiment [14], in experiment [15], in experiment [16], in experiment [17] and in experiment [18] was more than 100 µM each time. This molecule yielded a TGI in experiment [19] of more than 100 µM.

With `CON(C)C(=O)C(C)NC(=O)OC(C)(C)C` (stereo unspecified), the TGI in experiment [1], in experiment [2], in [3], in experiment [4], in experiment [6] and in [20] was more than 100 µM throughout. Also, the TGI in experiment [7], in experiment [8], in [9], in [10], in [11] and in experiment [12] was more than 100 µM in each case. The TGI in experiment [13], in experiment [14], in [15], in experiment [16], in experiment [17] and in [18] was more than 100 µM in each case. Further, the TGI in [19] is more than 100 µM.

In the case of `CCOc1cc2c(cc1O)CC[C@@H]1[C@@H]2CC[C@]2(C)[C@@H](O)CC[C@@H]12`, the TGI in experiment [1] was 5.51 µM; in experiment [2], 6.24 µM; in [3], more than 100 µM; in [4] it was 19.7 µM; in [5], more than 100 µM; in experiment [6], 3.16 µM. For the same molecule, the TGI in experiment [20] was 98.2 µM; in experiment [7], 11.6 µM; in experiment [8], 56.1 µM; in experiment [9], 2.48 µM; in experiment [10], 6.63 µM; in [11], 0.352 µM. Moreover, the TGI in experiment [12] turned out to be 11.9 µM; in [14], 10.8 µM; in experiment [15] it was 7.13 µM; in experiment [16] it was 5.87 µM; in [17] it was 48 µM; in [18], 56.4 µM. Moreover, the TGI in experiment [19] is 48.1 µM.

For `O=C(/C=C/c1cccs1)c1ccc([N+](=O)[O-])cc1`, the TGI in [1], in experiment [2], in experiment [3], in experiment [4], in experiment [5] and in experiment [6] was more than 100 µM each time. The TGI in experiment [7], in experiment [8], in experiment [9], in [10], in experiment [11] and in experiment [12] was more than 100 µM each time. Besides, the TGI in [13], in experiment [14], in [15], in experiment [16], in experiment [17] and in experiment [18] was more than 100 µM in each case. In experiment [19], this molecule came in with a TGI of more than 100 µM.

The record behind these values is PubChem BioAssay (NCI).
